Results published in patent US20260265334A1, “STAPLED PEPTIDES” (THE FLOREY INSTITUTE OF NEUROSCIENCE AND MENTAL HEALTH, priority 2023, published 2026).
Bridge positions count the residues as written; N and C are the ends. Square brackets hold non-standard residues; d marks the D form. Peptide text beside a SMILES is read from it. I, II: the chains in the order shown. αMeF = C[C@](N)(Cc1ccccc1)C(=O)O

Experiments:
RXFP4 [1] = target: T1, RXFP4 (Homo sapiens, UniProt Q8TDU9); assay: Eu-R3/I5 competition binding assay in CHO-K1-RXFP4 cells; design: expressed in transfected cells
Method: An Eu-R3/15 competition binding assay in CHO-K1-RXFP4 cells was carried out.
(§1) Competition binding curves for each peptide were performed in triplicate and each experiment was performed independently at least three times. Fluorescent measurements were carried out at excitation of 340 nm and emission of 614 nm on a BMG POLARstar plate reader (BMG Labtech, Melbourne, Australia). Pooled data were presented as mean±S.E.M. of specific binding and are fitted using a one-site binding curve in GraphPad Prism version 8 (GraphPad Inc., San Diego, USA). Statistical analyses were conducted using one-way analysis of variance with uncorrected Fisher's least significant difference (LSD) post-hoc analysis in GraphPad Prism version 9.
(§2) An additional analogue of INSL5 was utilised as a control, INSL5-A13, having an A chain (SEQ ID NO: 9) and a B chain (SEQ ID NO: 10) with a first disulfide bond between Cys 1 of the A chain and Cys 7 of the B chain, and a second disulfide bond between Cys 14 of the A chain and Cys 19 of the B chain:
(§3) Competition binding and cAMP activity assay were conducted by a procedure analogous to that described above for Example 3. The results are shown in FIG. 24 (RXFP3) and FIG. 25 (RXFP4).
Target sequence in this assay (Q8TDU9 whole entry): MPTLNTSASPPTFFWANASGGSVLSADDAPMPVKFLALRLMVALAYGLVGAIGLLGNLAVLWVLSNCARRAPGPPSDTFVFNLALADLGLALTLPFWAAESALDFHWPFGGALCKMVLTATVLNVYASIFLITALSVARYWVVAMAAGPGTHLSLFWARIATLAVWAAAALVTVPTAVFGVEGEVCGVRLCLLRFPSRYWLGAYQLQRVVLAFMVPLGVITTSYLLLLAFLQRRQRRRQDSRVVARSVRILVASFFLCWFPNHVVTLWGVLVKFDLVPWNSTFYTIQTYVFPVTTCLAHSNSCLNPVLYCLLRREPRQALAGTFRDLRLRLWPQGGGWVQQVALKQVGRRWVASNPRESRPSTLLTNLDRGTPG

RXFP4 [2] = target: T1, RXFP4; assay: Inhibition of forskolin-induced cAMP activity in CHO-K1-RXFP4 cells (pCRE β-galactosidase reporter); format: cell-based; design: expressed in transfected cells
Method: For agonist assays, cells were stimulated with forskolin (5 μM for RXFP3, 1 μM for RXFP4)±increasing concentrations of each peptide for 6 hours. Data were expressed as the % forskolin activity, whereby 100% was defined as forskolin alone and 0% as maximum agonist stimulation (1 μM Analogue 2 for RXFP3 and 1 μM Analogue 13 for RXFP4). Data were analysed and plotted using GraphPad Prism 9 and are expressed as the mean±SEM of the pooled data. Statistical analysis was conducted using one-way ANOVA with Uncorrected Fisher's LSD post-hoc analysis using GraphPad Prism 9.
as §2, §3
Target sequence in this assay (Q8TDU9 whole entry): as above

C57B16 mice = assay: Colorectal propulsion (bead expulsion) in loperamide-constipated mice; format: in vivo, mouse; settings: 20 μg/kg i.p., 10 minutes after loperamide 1 mg/kg s.c.
Method: Male C57B16 mice (20-30 g; ARC), between the ages of 3 to 5 months, were used for all studies. All experiments were conducted in accordance with the National Health and Medical Research Council (NHMRC) guidelines for the care and use of animals and with approval from the Florey Institute of Neuroscience and Mental Health Animal Ethics Committee (#18-128 FINMH and #18-081 FINMH). All animals were group housed (2-6 per cage) and maintained in a humidity-controlled room at 22° C. under a 12 hours light/dark cycle with access to food and water ad libitum.
Loperamide (Sigma-Aldrich) was prepared in 1% Tween-80 (SigmaAldrich) in distilled water and was administered subcutaneously (s.c.) at the back of the neck to induce constipation. Mice were injected with either vehicle (1% Tween-80/water) or loperamide (0.3, 1, 3 mg/kg). INSL5-A13 (20 μg/kg) (SEQ ID NOs 9 and 10) and single-chain αF stapled analogue (200 μg/kg) (SEQ ID NO 16) were dissolved in distilled water and injected intraperitoneally (i.p.) 10 minutes after loperamide was administered (1 mg/kg, s.c.). At 20 minutes post peptide injection, mice were lightly anesthetized with 2% (v/v) isoflurane in O2, administered at 1 L/min for a maximum of 15 seconds following induction with 5% isoflurane in O2 at 1 L/min. […] The time taken from bead insertion to bead expulsion was recorded. […] The time was scored as 30 minutes. […]

[3] = system: mouse model of inflammatory persistent pain; assay: CFA model of inflammatory persistent pain; format: in vivo; settings: co-injection with RXFP3 agonist
Method: Pilot studies were conducted in a mouse model of inflammatory persistent pain obtained by intraplantar injection of Complete Freund's Adjuvant (CFA). […] The effect is maximal at 30 minutes after the injection and vanished after 1 hour. The same result has been obtained in a rat CFA model with a similar time course of the antinociceptive effect.

RXFP3 [4] = target: T2, RXFP3 (Homo sapiens, UniProt Q9NSD7); assay: Eu-H3B1-22R competition binding assay in CHO-K1-RXFP3 cells; settings: 5 nM Eu-H3B1-22R, mean ± SEM (n), Table 2, read-out: Eu-H3B1-22R pKi (converted)
T2 construct: expressed in transfected cells
T2 sequence (Q9NSD7 1-469): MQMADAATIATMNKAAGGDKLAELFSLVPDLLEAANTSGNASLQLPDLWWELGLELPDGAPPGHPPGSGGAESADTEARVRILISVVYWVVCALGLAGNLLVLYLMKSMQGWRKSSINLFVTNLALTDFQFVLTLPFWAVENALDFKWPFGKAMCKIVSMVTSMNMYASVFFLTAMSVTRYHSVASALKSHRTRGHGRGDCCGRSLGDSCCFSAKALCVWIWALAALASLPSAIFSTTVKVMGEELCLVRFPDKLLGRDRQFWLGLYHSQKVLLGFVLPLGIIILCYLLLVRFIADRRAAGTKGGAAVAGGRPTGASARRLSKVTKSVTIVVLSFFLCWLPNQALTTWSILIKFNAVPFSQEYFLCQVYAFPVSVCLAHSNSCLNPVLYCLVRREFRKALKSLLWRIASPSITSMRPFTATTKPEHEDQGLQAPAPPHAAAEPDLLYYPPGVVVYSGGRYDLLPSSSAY
Method: An Eu-H3B1-22R competition binding assay was conducted in CHO-K1-RXFP3 cells.
as §1, §3

RXFP3 [5] = target: T2, RXFP3; assay: Inhibition of forskolin-induced cAMP activity in CHO-K1-RXFP3 cells (pCRE β-galactosidase reporter); format: cell-based; settings: 5 μM forskolin, 6 hours, Table 2, read-out: cAMP pEC50 (converted)
Method: Since RXFP3 is coupled to Gi/o proteins, peptides were tested for their ability to activate RXFP3 as measured via their ability to inhibit forskolin-induced cAMP activity in CHO-K1-RXFP3 or CHO-K1-RXFP4 cells transfected with a pCRE (cAMP Response Element) β-galactosidase reporter plasmid (as described in Belgi, A et al., Structure and function relationship of murine insulin-like peptide 5 (INSL5): free C-terminus is essential for RXFP4 receptor binding and activation. Biochemistry 2011, 50 (39), 8352-61; and Haugaard-Kedstrom, L. M et al., Synthesis and pharmacological characterization of a europium-labelled single-chain antagonist for binding studies of the relaxin-3 receptor RXFP3. Amino Acids 2015, 47 (6), 1267-71). For agonist assays, cells were stimulated with forskolin (5 μM for RXFP3, 1 μM for RXFP4)±increasing concentrations of each peptide for 6 hours. Data were expressed as the % forskolin activity, whereby 100% was defined as forskolin alone and 0% as maximum agonist stimulation (1 μM Analogue 2 for RXFP3 and 1 μM Analogue 13 for RXFP4). Data were analysed and plotted using GraphPad Prism 9 and are expressed as the mean±SEM of the pooled data. Statistical analysis was conducted using one-way ANOVA with Uncorrected Fisher's LSD post-hoc analysis using GraphPad Prism 9.
as §3

RXFP3 [6] = target: T3, RXFP3 (Homo sapiens, UniProt Q9NSD7); assay: NanoBRET β-arrestin2 recruitment assay, RXFP3-NLuc / Venus-β-arrestin2 in HEK293T cells; format: cell-based
T3 construct: expressed in transfected cells; host or cells: HEK293T (transient, Lipofectamine 2000, pcDNA3.1/Zeo(+))
Method: (§4) The inventors assessed if H3B10-27(13/17αF) retained the ability to recruit β-arrestin2 and therefore display full agonist activity at RXFP3 and RXFP4, in comparison to Peptide 5.
The RXFP3 β-arrestin2 recruitment assay was carried out by PCR cloning NLuc onto the C-terminus of human RXFP3 in an identical manner to the RXFP3-rLuc8 construct to create pcDNA3.1-RXFP3-NLuc. The construct was sequenced on both strands to confirm that the NLuc was in frame with RXFP3 and there were no additional PCR mutations. pcDNA3.1-RXFP3-NL was tested in parallel with pcDNA3.1-RXFP3 in cAMP activity assays to determine if the C-terminal nanoluciferase fusion affected agonist activity.
For NanoBRET β-arrestin2 recruitment assays, HEK293T cells were plated onto a six-well plate, and were transfected the following day with β-arrestin2-Venus and either RXFP3-Nluc or RXFP4-Nluc, in the pcDNA3.1/Zeo(+) vector, using Lipofectamine 2000. The next day, cells were washed with DPBS and resuspended in complete media containing 25 mM HEPES but no phenol red, and were seeded into a 96-well CulturPlate (PerkinElmer). […] Emissions were detected simultaneously using a PHERAstar FSX plate reader (BMG Labtech) with 450/80 nm and 535/30 nm filters. Ligand-induced BRET ratio was calculated by subtracting the ratio of 535/30 nm emissions to 450/80 nm emissions for vehicle from the same ratio for ligand-treated wells. […]
T3 sequence (P32121 whole entry partner, one chain of several): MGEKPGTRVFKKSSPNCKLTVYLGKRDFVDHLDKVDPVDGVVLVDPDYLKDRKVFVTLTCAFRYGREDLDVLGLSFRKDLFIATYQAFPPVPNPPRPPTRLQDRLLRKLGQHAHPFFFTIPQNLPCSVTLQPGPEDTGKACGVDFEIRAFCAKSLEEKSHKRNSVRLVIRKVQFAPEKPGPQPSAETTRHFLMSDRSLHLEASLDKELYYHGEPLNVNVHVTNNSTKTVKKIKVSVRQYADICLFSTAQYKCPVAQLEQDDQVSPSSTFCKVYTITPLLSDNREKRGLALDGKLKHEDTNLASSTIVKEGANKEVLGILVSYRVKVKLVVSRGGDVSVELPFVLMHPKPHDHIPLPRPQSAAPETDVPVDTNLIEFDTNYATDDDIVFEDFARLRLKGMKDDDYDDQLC

[7] = In vitro serum stability in human serum at 37° C.; settings: human serum
Method: Human serum (400 μl) was mixed with 200 μg peptide dissolved in 100 μl of water at 37° C. Eighty (80) μl of sample was removed at various time points (0 min, 30 min, 60 min, 120 min, 240 min, and 480 min), and 160 μl of acetonitrile added to precipitate plasma proteins. The solution was then centrifuged at 12000 rpm for 15 min at 4° C. 200 μl of supernatant was taken and mixed with 240 μl of milli-Q water and each sample analysed by RP-HPLC (2×80 μL injection) by measuring the area under the peak at appropriate retention times compared to the peak area of the peptide at time zero (100%). Data analysis (n=3, duplicate) was performed using a non-linear fit one-phase decay model in GraphPad Prism 9.

RXFP4 [8] = target: T1, RXFP4; assay: NanoBRET β-arrestin2 recruitment assay, RXFP4-NLuc / Venus-β-arrestin2 in HEK293T cells; format: cell-based; design: expressed in transfected cells; host or cells: HEK293T (transient, Lipofectamine 2000, pcDNA3.1/Zeo(+)); settings: AUC of the entire time course; text of b227; read-out: pEC50, RXFP4 β-arrestin2 recruitment (converted)
Method: as §4
Target sequence in this assay (Q8TDU9 whole entry): as the sequence (Q8TDU9 whole entry) above
Target sequence in this assay (P32121 whole entry partner): as the sequence (P32121 whole entry partner, one chain of several) above
For NanoBRET β-arrestin2 recruitment assays, HEK293T cells were plated onto a six-well plate, and were transfected the following day with β-arrestin2-Venus and either RXFP3-Nluc or RXFP4-Nluc, in the pcDNA3.1/Zeo(+) vector, using Lipofectamine 2000. The next day, cells were washed with DPBS and resuspended in complete media containing 25 mM HEPES but no phenol red, and were seeded into a 96-well CulturPlate (PerkinElmer). The next day, prior to the assay, cells were pre-incubated in phenol red free media with NLuc substrate, 5 μM coelenterazine 400a for RXFP3-nLuc and 5 μM coelenterazine h for RXFP4-NLuc (both from Nanolight, Pinetop, AZ, USA) to establish a baseline, before addition of ligand or vehicle. Emissions were detected simultaneously using a PHERAstar FSX plate reader (BMG Labtech) with 450/80 nm and 535/30 nm filters. Ligand-induced BRET ratio was calculated by subtracting the ratio of 535/30 nm emissions to 450/80 nm emissions for vehicle from the same ratio for ligand-treated wells. […]

With `CC[C@H](C)[C@@H]1NC(=O)[C@H](Cc2ccc(O)cc2)NC(=O)[C@H]([C@@H](C)CC)NC(=O)[C@H](C(C)C)NC(=O)[C@H]([C@@H](C)O)NC(=O)[C@H](CCCNC(=N)N)NC(=O)[C@H]([C@@H](C)CC)NC(=O)[C@H](Cc2ccc(O)cc2)NC(=O)[C@H](CCC(=O)O)NC(=O)[C@H](CC(C)C)NC(=O)CNC(=O)[C@@H](NC(=O)[C@H](CC(C)C)NC(=O)[C@H](CCCNC(=N)N)NC(=O)[C@@H](NC(=O)[C@H](CO)NC(=O)[C@H](CCC(=O)O)NC(=O)[C@@H](N)CCCCN)C(C)C)CSSC[C@H](N)C(=O)N[C@@H]([C@@H](C)O)C(=O)N[C@@H](CC(=O)O)C(=O)NCC(=O)N[C@@H](C)C(=O)N[C@@H](CO)C(=O)N[C@@H](CCSC)C(=O)N[C@@H](CCCCN)C(=O)N[C@@H](CC(=O)O)C(=O)N[C@@H](CC(C)C)C(=O)N[C@@H](CO)C(=O)N[C@@H](C)C(=O)N[C@@H](CC(C)C)C(=O)N[C@H](C(=O)O)CSSC[C@@H](C(=O)N[C@@H](C)C(=O)N[C@@H](CO)C(=O)N[C@@H](CO)C(=O)N[C@@H](CCCNC(=N)N)C(=O)N[C@@H](Cc2c[nH]c3ccccc23)C(=O)O)NC1=O` [INSL5-A13] (I: H-KESVRLCGLEYIRTVIYICASSRW-OH / II: H-CTDGASMKDLSALC-OH; disulfide I:7-II:1, I:19-II:14; N-terminus and C-terminus assumed) the “Eu-R3/I5 pKi” value (RXFP4 [1]; RXFP4, Table 5) was 7.46 ± 0.06 (7), the “cAMP pEC50” value (RXFP4 [2]; RXFP4, Table 5) was 8.10 ± 0.10 (4) and the “colorectal propulsion (bead expulsion)” value (C57B16 mice) was “effective in accelerating colorectal propulsion”.

With “R3(B1-22): R3(B1-22) RXFP3 antagonist, co-injected in pain model; possibly the same as H3B1-22R (RAAPYGVRLSGREFIRAVIFTSR)” the “effect of co-injection on the antinociceptive effects of the agonists” value [3] was “fully abolished”.

Molecule `CC[C@H](C)[C@H](NC(=O)[C@H](Cc1ccccc1)NC(=O)[C@](C)(Cc1ccccc1)NC(=O)[C@H](CCCNC(=N)N)NC(=O)CNC(=O)[C@@H](N)CO)C(=O)N[C@@H](CCCNC(=N)N)C(=O)N[C@@](C)(Cc1ccccc1)C(=O)N[C@H](C(=O)N[C@H](C(=O)N[C@@H](Cc1ccccc1)C(=O)N[C@H](C(=O)N[C@@H](CO)C(=O)NCC(=O)NCC(=O)N[C@@H](CO)C(=O)N[C@@H](CCCNC(=N)N)C(=O)N[C@@H](Cc1c[nH]c2ccccc12)C(=O)O)[C@@H](C)O)[C@@H](C)CC)C(C)C` [H3B10-27(13/17αF)] (H-SGR[αMeF]FIR[αMeF]VIFTSGGSRW-OH) has a Ki (RXFP3 [4]) of 148 nM, an EC50 (RXFP3 [5]) of 6.92 nM and a Ki (RXFP4 [1]; RXFP4, CHO-K1-RXFP4 cells, 5 nM Eu-R3/I5, Table 3, read-out: Eu-R3/I5 pKi (converted)) of 155 nM. It also gave an EC50 (RXFP4 [2]; RXFP4, CHO-K1-RXFP4 cells, 1 μM forskolin, 6 hours, Table 3, read-out: cAMP pEC50 (converted)) of 55 nM, an EC50 (RXFP3 [6]; AUC of NanoBRET time course, Table 4, read-out: RXFP3 pEC50 (β-arrestin2 recruitment) (converted)) of 64.6 nM and an EC50 (RXFP3 [6]; AUC of the entire time course, text of b227, read-out: pEC50, RXFP3 β-arrestin2 recruitment (converted)) of 89.1 nM. It also gave a half-life at 400 µg/mL [7] of ~5 h and an EC50 (RXFP4 [8]) of 2690 nM.
